Source: PubChem BioAssay AID624339 (Sanford-Burnham Center for Chemical Genomics, 2012)
Active and inactive are the calls of the source. The rule behind the calls is not given here.

What follows are molecules tested on PAMPA artificial membrane permeability, pH 7.4 (assay: passive permeability across artificial membrane, ADME assay, biophysical (AID 624339)). Details: at 100 µM; active compounds read high.

Row | SMILES | permeability Pe
1 | N#C/C(=C\c1ccc([N+](=O)[O-])o1)c1nc2ccccc2[nH]1 | 145 10-6 cm/s
2 | CC(=O)c1ccc(N2CCN(S(=O)(=O)c3ccc4c(c3)CC(=O)N4)CC2)cc1 | 194 10-6 cm/s
3 | CCCC(=O)Nc1cccc(NC(=O)c2ccccc2Br)c1 | 190 10-6 cm/s
4 | CCCOc1ccc(-c2nc(OC)c3ccccc3n2)cc1 | 26 10-6 cm/s
5 | COc1ccc(N(C(=O)CCl)C(C(=O)NCCc2ccccc2)c2cccs2)cc1Cl (stereo not drawn) | 568 10-6 cm/s
6 | O=[N+]([O-])c1ccc(CN2CCOCCOCCN(Cc3ccc([N+](=O)[O-])cc3)CCOCC2)cc1 | 1080 10-6 cm/s
7 | COc1ccccc1N(/N=C1\Sc2ccccc2C1=O)C(C)=O | 831 10-6 cm/s
8 | CC1CCCN(C(C(=O)Nc2ccc3c(c2)OCCO3)c2ccccc2)C1 (stereo not drawn) | 2010 10-6 cm/s
9 | Cc1cccc(-n2cnc3cc(C(=O)N4CCCCC4)ccc32)c1 | 748 10-6 cm/s
10 | O=C(O)c1ccc(N2C(=O)/C(=C/c3ccc(-c4ccc([N+](=O)[O-])cc4)o3)C=C2c2ccccc2)cc1 | < 0.8 10-6 cm/s (inactive)
11 | Cn1nnnc1Sc1ncnc2scc(-c3ccccc3)c12 | 973 10-6 cm/s
12 | COc1ccc(OC)c(-c2nnc3n2N=C(c2ccc(OC)c(OC)c2)CS3)c1 | 590 10-6 cm/s
13 | CCOc1ccc(NC(=S)N2CCC(C(O)(c3ccccc3)c3ccccc3)CC2)cc1 | 682 10-6 cm/s
14 | NC(=O)C1CCN(c2nc(-c3ccc(Br)cc3)cs2)CC1 | 284 10-6 cm/s
15 | O=c1[nH]c2c(s1)C(c1cccnc1)C1C3CCC(C3)C1S2 (stereo not drawn) | 830 10-6 cm/s
16 | Brc1cc2c(cc1C1Nc3ccccc3C3C=CCC31)OCO2 (stereo not drawn) | 37 10-6 cm/s
17 | CCc1nnc(NC(=O)c2ccc(NS(=O)(=O)c3ccccc3)cc2)s1 | 163 10-6 cm/s
18 | COc1ccc(OC)c(S(=O)(=O)Nc2cnc3ccccc3c2)c1 | 706 10-6 cm/s
19 | COc1ccc(CSc2nc(C)cc(=O)[nH]2)cc1 | 165 10-6 cm/s
20 | Oc1cc(O)cc(/C=C/c2ccc(O)c(O)c2)c1 | 1.2 10-6 cm/s (inactive)
21 | O=c1oc2c(O)c(O)cc3c(=O)oc4c(O)c(O)cc1c4c23 | 3.1 10-6 cm/s (inactive)

Row | SMILES | permeability Pe
22 | O=C(COc1ccccc1Br)NCCc1nc2ccccc2[nH]1 | 795 10-6 cm/s
23 | Cn1cnc([N+](=O)[O-])c1Sc1ncnc2nc[nH]c12 | 3 10-6 cm/s (inactive)
24 | O=S1(=O)Nc2c(ccc3cccnc23)-c2ccccc21 | 75 10-6 cm/s
25 | COc1ccc(C2c3c(ncn(CCN4CCOCC4)c3=N)Oc3ccc4ccccc4c32)cc1OC (stereo not drawn) | 1440 10-6 cm/s
26 | O=C(O)c1cccnc1SCCc1ccccc1 | 17 10-6 cm/s
27 | COc1ccc(CNCc2cccc3ccccc23)cc1 | 1130 10-6 cm/s
28 | O=C1C2CC=CCC2C(=O)N1c1n[nH]c(-c2ccccc2)n1 (stereo not drawn) | 63 10-6 cm/s
29 | c1ccc(CC2CCN(c3ncnc4sccc34)CC2)cc1 | 1020 10-6 cm/s
30 | Cc1ccc(S(=O)(=O)NCc2ccc(C(=O)NCCN(Cc3ccccc3)C(C)C)cc2)cc1 | 1480 10-6 cm/s
31 | Brc1ccc2c(c1)CN1CCCC1=N2 | 786 10-6 cm/s
32 | Cc1ccc(S(=O)(=O)n2c(N)nc3ccccc32)cc1 | 370 10-6 cm/s
33 | CCCc1nc2c(=O)n(C)c(=O)nc-2n(C)n1 | 0 10-6 cm/s (inactive)
34 | c1ccc2c(Nc3nnc(-c4ccncc4)s3)cccc2c1 | 211 10-6 cm/s
35 | COc1ccc(S(=O)(=O)n2nc(OC(=O)c3ccccc3)cc2N)cc1 | 459 10-6 cm/s
36 | COc1ccc(C2CC(c3ccccc3)=NN2c2ccc(S(N)(=O)=O)cc2)cc1 (stereo not drawn) | 278 10-6 cm/s
37 | CN(C)c1oc(-c2ccc(OCc3ccc(Cl)cc3)cc2)nc1C#N | 208 10-6 cm/s
38 | O=S(=O)(NC1CCCCC1N1CCOCC1)c1ccc(Cl)cc1 (stereo not drawn) | 815 10-6 cm/s
39 | O=C(c1ccccn1)N(Cc1cccs1)C1(C(=O)NC2CCCCC2)CCCCC1 | 1580 10-6 cm/s
40 | O=c1[nH]c(SCc2ccc(Cl)cc2)nc2c1CCC2 | 631 10-6 cm/s
41 | O=c1c(O)c(-c2cc(O)c(O)c(O)c2)oc2cc(O)cc(O)c12 | 1.7 10-6 cm/s (inactive)
42 | O=C(CSc1cccc2cccnc12)N1CCCC1 | 101 10-6 cm/s

Row | SMILES | permeability Pe
43 | COC(=O)c1ccccc1NC(=O)c1ccc(F)cc1 | 629 10-6 cm/s
44 | CN1CSC(=S)N(C)C1 | 18 10-6 cm/s
45 | C=CCn1c(SCC(=O)c2ccc(O)c(O)c2)nnc1-c1ccccc1OC | 88 10-6 cm/s
46 | Cc1cc(C)nc(-n2nc(C)c(Sc3ccc(F)cc3)c2N)n1 | 1020 10-6 cm/s
47 | CCN1CCN(c2nc3ccccc3nc2C(C#N)C(=O)OC2CCCCC2)CC1 (stereo not drawn) | 2130 10-6 cm/s
48 | CC(C)C(=O)NC(c1ccco1)c1ccc2cccnc2c1O (stereo not drawn) | 286 10-6 cm/s
49 | O=C(O)c1ccccc1OCc1ccccc1Br | 22 10-6 cm/s
50 | Cc1ccc(NS(=O)(=O)c2ccc3c(c2)CCC(=O)N3)cc1C | 622 10-6 cm/s
51 | Cc1ccc(-n2c(N)c(C#N)c(-c3ccccc3)c(C#N)c2=O)cc1 | 67 10-6 cm/s
52 | O=C(CCNS(=O)(=O)c1cccc2nsnc12)N1CCN(c2ccccn2)CC1 | 143 10-6 cm/s
53 | CCCN1CNc2c(c(=O)[nH]c(=S)n2CCc2ccc(OC)c(OC)c2)C1 | 75 10-6 cm/s
54 | CCCc1cc(C(=O)N(C2CCCCC2)C2CCCCC2)no1 | 0.01 10-6 cm/s (inactive)
55 | Cc1ccc(NC(=O)CCC(=O)N/N=C/c2ccc([N+](=O)[O-])o2)cc1C | 37 10-6 cm/s
56 | CCOC(=O)C(C)Oc1cccc2c(=O)n(CC(=O)Nc3ccc4c(c3)OCCO4)ccc12 (stereo not drawn) | 441 10-6 cm/s
57 | O=C(COC(=O)C12CC3CC(CC(C3)C1)C2)NCc1ccco1 | 195 10-6 cm/s
58 | Cc1ccc(C)c(OCCn2cc(C(=O)O)c3ccccc32)c1 | 256 10-6 cm/s
59 | O=c1c2ccccc2[se]n1-c1ccccc1 | 448 10-6 cm/s
60 | COc1cc(NC(=O)c2cc(C3CC3)on2)c(OC)cc1Cl | 720 10-6 cm/s
61 | CS(=O)(=O)c1ccc(C(=O)OCC(=O)NC23CC4CC(CC(C4)C2)C3)cc1[N+](=O)[O-] | 443 10-6 cm/s
62 | C/C=C/Cn1c(SCCCc2ccccc2)nc2c1c(=O)[nH]c(=O)n2C | 1340 10-6 cm/s
63 | COc1ccc(S(=O)(=O)N2CCN(S(=O)(=O)c3ccc4c(c3)OCCO4)CC2)cc1 | 562 10-6 cm/s

Row | SMILES | permeability Pe
64 | c1ccc(-c2nnc(N3CCOCC3)nc2-c2ccccc2)cc1 | 1490 10-6 cm/s
65 | CCc1oc2ccccc2c1C(=O)c1cc(Br)c(O)c(Br)c1 | 71 10-6 cm/s
66 | Cc1cc(C)n(-c2nc(NCCCO)c3c4c(sc3n2)CCCC4)n1 | 1130 10-6 cm/s
67 | CCOc1ccc(-c2nc(-c3ccncc3)no2)cc1OCC | 1030 10-6 cm/s
68 | O=C1NCCCc2c1oc1ccc(O)cc21 | 13 10-6 cm/s
69 | Cc1ccc(N2CCN(S(=O)(=O)N3CCCCC3)CC2)c(C)c1 | 263 10-6 cm/s
70 | O=C(O)CCC(NS(=O)(=O)c1ccc(-c2ccccc2)cc1)C(=O)O (stereo not drawn) | < 0.4 10-6 cm/s (inactive)
71 | CN(C)c1nc(N)nc(CSc2nnnn2-c2cccc3ccccc23)n1 | 268 10-6 cm/s
72 | CCCn1ncc(CN2CCCC(C(=O)c3cccc(OC(C)C)c3)C2)c1C (stereo not drawn) | 1310 10-6 cm/s
73 | Cc1ccnc(NC(=O)CCCOc2cc(=O)n(C)c3ccccc23)c1 | 510 10-6 cm/s
74 | Cc1nc(SCc2nc3ccccc3[nH]2)c2oc3ccccc3c2n1 | 720 10-6 cm/s
75 | Cc1cc2c(s1)c1cnn(Cc3ccccc3F)c(=O)c1n2C | 913 10-6 cm/s
76 | CCCN(CCC)CCNC(=O)C1CCN(Cc2nc(-c3ccc(Cl)cc3)oc2C)CC1 | 1860 10-6 cm/s
77 | Cc1cc(C(=O)CN2C(=O)CCC2=O)c(C)n1Cc1ccccc1 | 250 10-6 cm/s
78 | N#Cc1ccccc1CSc1nc2ncc(Br)cc2[nH]1 | 144 10-6 cm/s
79 | Cc1cc(-c2nnc3n2CCCCC3)c(C)n1-c1ccccc1 | 393 10-6 cm/s
80 | O=C1CCCC2=C1C1(CCCC1)N=C(Nc1nc3ccccc3o1)N2 | 436 10-6 cm/s
81 | COc1nc(-c2ccccc2)nnc1-c1ccccc1 | 1240 10-6 cm/s

Same assay, conditions: at 100 µM; with 20% ACN; active compounds read high

Row | SMILES | permeability Pe
82 | COc1ccc(Sc2ccc(NC(=O)c3ccccc3Cl)cc2C#N)cc1 | 487 10-6 cm/s
83 | Cc1ccc(C(=O)n2c3ccccc3c3ccccc32)cc1 | 352 10-6 cm/s
84 | COc1cccc(-c2nc(-c3ccc(NC(=O)Cc4ccccc4OC)cc3)no2)c1 | 863 10-6 cm/s
85 | CN(C)C1=C(Cl)C(=O)N(c2ccc(Cl)c(Cl)c2)C1=O | 381 10-6 cm/s
86 | CSc1nc(-c2ccc(C)cc2)nc(C(Cl)Cl)n1 | 154 10-6 cm/s
87 | Cc1ccc(C)c(NS(=O)(=O)c2cc(C(=O)Nc3ccccc3-c3ccccc3)ccc2Cl)c1 | 253 10-6 cm/s
88 | Cc1ccccc1N1CCN(c2ncnc3c2cnn3Cc2ccc(Cl)cc2)CC1 | 1100 10-6 cm/s
